Experimental data as given in ChEMBL document CHEMBL3232996, “Synthesis and biological evaluation of novel (123)I-labeled 4-(4-iodophenyl)butanoyl-L-prolyl-(2S)-pyrrolidines for imaging prolyl oligopeptidase in vivo” (Eur J Med Chem, 2014).
pIC50, pKi: −log10 of the molar value.

Assays:
Prolyl endopeptidase [1] = target: Prolyl endopeptidase (Sus scrofa, UniProt P23687); experiment: Inhibition of porcine prolyl oligopeptidase using Z-Gly-Pro-AMC as substrate after 60 mins by double-reciprocal plot analysis; settings: read-out: Ki(app)
Sequence of Prolyl endopeptidase (Sus scrofa, UniProt P23687) (P23687 whole entry): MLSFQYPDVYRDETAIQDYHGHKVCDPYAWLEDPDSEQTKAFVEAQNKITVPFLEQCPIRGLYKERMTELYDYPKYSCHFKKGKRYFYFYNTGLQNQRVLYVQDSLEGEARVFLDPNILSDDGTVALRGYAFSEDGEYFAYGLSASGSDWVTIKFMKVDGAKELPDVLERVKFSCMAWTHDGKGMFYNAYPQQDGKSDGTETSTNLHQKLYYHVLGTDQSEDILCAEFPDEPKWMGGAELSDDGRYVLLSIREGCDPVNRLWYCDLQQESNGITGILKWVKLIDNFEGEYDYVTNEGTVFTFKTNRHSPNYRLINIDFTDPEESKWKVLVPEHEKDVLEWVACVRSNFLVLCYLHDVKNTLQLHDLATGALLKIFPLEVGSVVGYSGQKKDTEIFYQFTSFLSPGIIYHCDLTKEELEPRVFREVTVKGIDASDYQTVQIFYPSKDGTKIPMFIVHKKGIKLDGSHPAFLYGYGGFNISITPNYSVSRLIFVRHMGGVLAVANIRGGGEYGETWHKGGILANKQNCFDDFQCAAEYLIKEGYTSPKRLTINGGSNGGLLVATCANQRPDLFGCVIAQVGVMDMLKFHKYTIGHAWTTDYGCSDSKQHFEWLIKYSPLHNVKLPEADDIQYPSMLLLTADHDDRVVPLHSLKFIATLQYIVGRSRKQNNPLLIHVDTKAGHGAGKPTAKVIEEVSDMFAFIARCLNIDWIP

Prolyl endopeptidase [2] = target: Prolyl endopeptidase (Mus musculus, UniProt Q9QUR6); experiment: Competitive inhibition of mouse brain prolyl oligopeptidase; assay type: tissue-based
Sequence of Prolyl endopeptidase (Mus musculus, UniProt Q9QUR6) (Q9QUR6 whole entry): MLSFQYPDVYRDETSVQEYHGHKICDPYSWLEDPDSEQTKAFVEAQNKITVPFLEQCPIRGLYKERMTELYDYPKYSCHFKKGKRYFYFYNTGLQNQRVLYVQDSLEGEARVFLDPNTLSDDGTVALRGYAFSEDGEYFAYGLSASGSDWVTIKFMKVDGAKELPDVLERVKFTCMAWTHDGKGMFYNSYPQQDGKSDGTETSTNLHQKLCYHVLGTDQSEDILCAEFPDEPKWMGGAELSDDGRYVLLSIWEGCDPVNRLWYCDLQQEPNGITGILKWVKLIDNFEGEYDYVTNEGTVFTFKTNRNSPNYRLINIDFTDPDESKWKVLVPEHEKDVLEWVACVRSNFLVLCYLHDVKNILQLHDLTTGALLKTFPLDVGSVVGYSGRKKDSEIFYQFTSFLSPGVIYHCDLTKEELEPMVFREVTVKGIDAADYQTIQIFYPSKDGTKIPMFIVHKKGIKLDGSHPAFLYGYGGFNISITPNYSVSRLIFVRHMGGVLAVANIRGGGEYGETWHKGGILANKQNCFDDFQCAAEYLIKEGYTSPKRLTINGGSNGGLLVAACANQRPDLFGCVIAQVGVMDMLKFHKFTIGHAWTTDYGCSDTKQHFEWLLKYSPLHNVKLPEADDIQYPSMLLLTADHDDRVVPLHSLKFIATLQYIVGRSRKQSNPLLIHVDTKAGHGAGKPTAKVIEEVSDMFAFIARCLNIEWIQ

Compound	pKi (Prolyl endopeptidase [1])	pIC50 (Prolyl endopeptidase [2])
O=C([C@@H]1CCCN1C(=O)CCCc1ccc(I)cc1)N1CCCC1	7.66	
[11CH3]Nc1ccc(CCCC(=O)N2CCC[C@H]2C(=O)N2CCCC2)cc1		8.51
N#C[C@@H]1CCCN1C(=O)[C@@H]1CCCN1C(=O)CCCc1ccc(I)cc1	8.38	
